According to ChEMBL document CHEMBL1151430, “Development of colistin-dependent Acinetobacter baumannii-Acinetobacter calcoaceticus complex” (2007):
≈ marks a conversion by molar mass, not a printed value. Calls of active or inactive are those of the source. The calls are words filed in the database; no cut-off is given here.

Assays:
Acinetobacter [1] = assay: Antimicrobial activity against Acinetobacter baumannii-Acinetobacter calcoaceticus complex isolated from diabetic patient with calcaneal osteomyelitis by broth microdilution assay; type: functional
Acinetobacter [2] = assay: Antimicrobial activity against 8 ug/ml colistin-subcultured Acinetobacter baumannii-Acinetobacter calcoaceticus complex isolated from diabetic patient with calcaneal osteomyelitis and bacteremia by broth microdilution assay; type: functional

| Compound | MIC (Acinetobacter [1]) [µg/mL] | MIC (Acinetobacter [2]) |
| --- | --- | --- |
| O=C(O)[C@H]1/C(=C/CO)O[C@@H]2CC(=O)N21 [CLAVULANIC ACID] | > 2 | inactive |
| C[C@@H](O)[C@H]1C(=O)N2C(C(=O)O)=C(SCCNC=N)C[C@H]12 [IMIPENEM ANHYDROUS] | 16 (≈ 53.4 µM) | inactive |
| COLISTIN | 1 | > 16 µg/mL |
| CC1(C)S[C@@H]2[C@H](NC(=O)[C@H](C(=O)O)c3ccsc3)C(=O)N2[C@H]1C(=O)O [TICARCILLIN] | > 256 | inactive |
| CN(C)c1ccc(O)c2c1C[C@H]1C[C@H]3[C@H](N(C)C)C(O)=C(C(N)=O)C(=O)[C@@]3(O)C(O)=C1C2=O [MINOCYCLINE] | 1 (≈ 2.19 µM) | inactive |
| NCC[C@H](O)C(=O)N[C@@H]1C[C@H](N)[C@@H](O[C@H]2O[C@H](CN)[C@@H](O)[C@H](O)[C@H]2O)[C@H](O)[C@H]1O[C@H]1O[C@H](CO)[C@@H](O)[C@H](N)[C@H]1O [AMIKACIN] | 8 (≈ 13.7 µM) | inactive |
| CC(C)(O/N=C(\C(=O)N[C@@H]1C(=O)N2C(C(=O)[O-])=C(C[n+]3ccccc3)CS[C@H]12)c1csc(N)n1)C(=O)O [CEFTAZIDIME] | > 64 | inactive |
| CC1(C)S[C@@H]2[C@H](NC(=O)[C@H](N)c3ccccc3)C(=O)N2[C@H]1C(=O)O [AMPICILLIN] | > 8 | inactive |
| CN(C)c1cc(NC(=O)CNC(C)(C)C)c(O)c2c1C[C@H]1C[C@H]3[C@H](N(C)C)C(O)=C(C(N)=O)C(=O)[C@@]3(O)C(O)=C1C2=O [TIGECYCLINE] | 2 (≈ 3.41 µM) | 0.12 µg/mL |
| CC1(C)[C@H](C(=O)O)N2C(=O)C[C@H]2S1(=O)=O [SULBACTAM] | > 64 | inactive |
| POLYMYXIN B | 1 | 4 µg/mL |
| C[C@H]1c2cccc(O)c2C(=O)C2=C(O)[C@]3(O)C(=O)C(C(N)=O)=C(O)[C@@H](N(C)C)[C@@H]3[C@@H](O)[C@@H]21.O [DOXYCYCLINE] | 8 | 1 µg/mL |
| CC[C@H]1OC(=O)[C@H](C)[C@@H](O[C@H]2C[C@@](C)(OC)[C@@H](O)[C@H](C)O2)[C@H](C)[C@@H](O[C@@H]2O[C@H](C)C[C@H](N(C)C)[C@H]2O)[C@](C)(O)C[C@@H](C)CN(C)[C@H](C)[C@@H](O)[C@]1(C)O [AZITHROMYCIN] | 8 (≈ 10.7 µM) | inactive |
| GENTAMICIN | > 8 | inactive |
